Measurements: ChEMBL document CHEMBL1158517, “Discovery of carmegliptin: a potent and long-acting dipeptidyl peptidase IV inhibitor for the treatment of type 2 diabetes” (Bioorg Med Chem Lett, 2010)
The source made the active and inactive calls. No cut-off for these calls is given here.

What was measured:
[1] = Distribution coefficient, log D at pH 7.4; format: physicochemical; details: octanol/water
[2] = Permeability coefficient by PAMPA; format: ADME
Rattus norvegicus [3] = assay: Antidiabetic activity in Zucker fa/fa rat assessed as reduction in glucose level at 0.3 mg/kg pretreated 2 hrs before glucose challenge measured after 40 mins by oral glucose tolerance test; format: functional; set-up: scale not given: the % may be the effect or the level left
hERG (KCNH2) [4] = molecular target: T1, hERG (KCNH2) (Homo sapiens, UniProt Q12809); assay: Inhibition of human ERG at 10 uM by patch clamp assay
T1 sequence (Q12809 whole entry): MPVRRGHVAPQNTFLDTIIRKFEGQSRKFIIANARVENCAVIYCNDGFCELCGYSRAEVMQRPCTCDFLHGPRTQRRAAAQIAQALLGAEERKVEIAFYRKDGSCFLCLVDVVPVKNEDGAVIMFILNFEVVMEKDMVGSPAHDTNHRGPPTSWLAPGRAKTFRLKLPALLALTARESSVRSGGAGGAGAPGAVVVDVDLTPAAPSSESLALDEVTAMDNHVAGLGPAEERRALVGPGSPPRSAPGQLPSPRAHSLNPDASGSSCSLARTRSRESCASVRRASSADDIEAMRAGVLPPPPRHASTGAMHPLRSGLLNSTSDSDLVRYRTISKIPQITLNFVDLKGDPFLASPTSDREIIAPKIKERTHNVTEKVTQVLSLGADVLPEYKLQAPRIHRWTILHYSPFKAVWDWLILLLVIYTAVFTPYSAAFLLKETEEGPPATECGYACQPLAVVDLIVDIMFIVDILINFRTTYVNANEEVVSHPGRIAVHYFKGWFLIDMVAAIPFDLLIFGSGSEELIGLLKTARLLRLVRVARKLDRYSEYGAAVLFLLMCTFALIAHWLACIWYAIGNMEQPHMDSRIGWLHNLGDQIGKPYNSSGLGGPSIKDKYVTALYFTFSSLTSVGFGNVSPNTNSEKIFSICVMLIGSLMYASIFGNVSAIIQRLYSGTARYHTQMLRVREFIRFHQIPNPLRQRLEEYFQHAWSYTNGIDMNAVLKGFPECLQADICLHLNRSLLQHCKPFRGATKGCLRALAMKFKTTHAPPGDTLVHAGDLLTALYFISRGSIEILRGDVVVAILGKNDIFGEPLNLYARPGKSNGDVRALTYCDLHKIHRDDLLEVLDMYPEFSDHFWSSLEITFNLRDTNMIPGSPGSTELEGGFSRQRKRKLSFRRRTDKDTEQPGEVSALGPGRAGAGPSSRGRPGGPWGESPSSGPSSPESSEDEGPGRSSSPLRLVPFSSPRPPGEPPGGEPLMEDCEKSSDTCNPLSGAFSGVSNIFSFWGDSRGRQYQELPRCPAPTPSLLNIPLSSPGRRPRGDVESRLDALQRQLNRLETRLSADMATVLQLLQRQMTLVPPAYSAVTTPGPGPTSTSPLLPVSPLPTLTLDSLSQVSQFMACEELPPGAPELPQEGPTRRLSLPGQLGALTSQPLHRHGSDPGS

[5] = Clearance in Wistar rat at 1 mg/kg, iv; format: ADME, organism-based; set-up: dose 1 mg/kg, route intravenous; details: in vivo
[6] = Clearance in cynomolgus monkey at 1 mg/kg, iv; format: ADME, organism-based, Macaca fascicularis; set-up: dose 1 mg/kg, route intravenous; details: in vivo
[7] = Volume of distribution at steady state in Wistar rat at 1 mg/kg, iv; format: ADME, organism-based; set-up: dose 1 mg/kg, route intravenous; details: in vivo, read-out: Vdss
[8] = Volume of distribution at steady state in cynomolgus monkey at 1 mg/kg, iv; format: ADME, organism-based, Macaca fascicularis; set-up: dose 1 mg/kg, route intravenous; details: in vivo, read-out: Vdss
[9] = Half life in Wistar rat at 1 mg/kg, iv; format: ADME, organism-based; set-up: dose 1 mg/kg, route intravenous; details: in vivo
[10] = Half life in cynomolgus monkey at 1 mg/kg, iv; format: ADME, organism-based, Macaca fascicularis; set-up: dose 1 mg/kg, route intravenous; details: in vivo
[11] = Oral bioavailability in Wistar rat at 3 mg/kg; format: ADME, organism-based; details: in vivo
[12] = Oral bioavailability in cynomolgus monkey at 3 mg/kg; format: ADME, organism-based, Macaca fascicularis; details: in vivo
Phospholipidosis = assay: In vitro phospholipidosis at <20uM; format: ADME
Mus musculus [13] = assay: Antidiabetic activity in db/db mouse assessed as reduction in glucose AUC at 10 mg/kg by oral glucose tolerance test relative to control; format: functional; set-up: scale not given: the % may be the effect or the level left
Mus musculus [14] = assay: Antidiabetic activity in db/db mouse assessed as reduction in fasting glucose level at 10 mg/kg; format: functional, organism-based; set-up: dose 10 mg/kg
Rattus norvegicus [15] = assay: Antidiabetic activity in Zucker fa/fa rat assessed as increase in glucose infusion rate at 20 mg/kg daily once for 7 days by euglycemic hyperinsulinemic clamp; format: functional, organism-based; set-up: dose 20 mg/kg
Rattus norvegicus [16] = assay: Antidiabetic activity in Zucker fa/fa rat assessed as reduction in hepatic glucose production at 20 mg/kg daily once for 7 days by euglycemic hyperinsulinemic clamp; format: functional
hERG (KCNH2) [17] = molecular target: T1, hERG (KCNH2); assay: Inhibition of human ERG by patch clamp assay
Cynomolgus monkey [18] = assay: Inhibition of DPP4 in cynomolgus monkey plasma assessed as remaining activity at 3 mg/kg, po after 24 hrs relative to control; format: functional, Macaca fascicularis
Cynomolgus monkey [19] = assay: Inhibition of DPP4 in cynomolgus monkey plasma assessed as remaining activity at 3 mg/kg, po after 48 hrs relative to control; format: functional, Macaca fascicularis
Rattus norvegicus [20] = species on record: Rattus norvegicus; assay: Renal clearance in rat as % of total clearance; format: ADME, organism-based, Kidney; details: in vivo
Canis familiaris = species on record: Canis familiaris; assay: Renal clearance in dog as % of total clearance; format: ADME, organism-based, Canis lupus familiaris, Kidney; details: in vivo
Rhesus monkey = assay: Renal clearance in monkey as % of total clearance; format: ADME, organism-based, Macaca mulatta, Kidney; details: in vivo

## COc1cc2c(cc1OC)C1CC(N)C(N3CCCCC3=O)CN1CC2 (stereo not given)
[1]
  logD: -0.5
[2]
  permeability: 0.2 ×10⁻⁶ cm/s
Rattus norvegicus [3]
  Activity: 33%

## COc1cc2c(cc1OC)[C@@H]1C[C@H](N)[C@@H](N3CCCCC3=O)CN1CC2
[1]
  logD: -0.5
[2]
  permeability: 0.2 ×10⁻⁶ cm/s
Rattus norvegicus [3]
  Activity: 56%
hERG (KCNH2) [4]
  inhibition at 10 µM: 45%
[5]
  clearance: 25 mL/min/kg
[6]
  clearance: 18.7 mL/min/kg
[7]
  Vd: 5.9 L/kg
[8]
  Vd: 8.6 L/kg
[9]
  half-life: 4.5 h
[10]
  half-life: 9.4 h
[11]
  bioavailability: 47%
[12]
  bioavailability: 64%
Phospholipidosis
  Phospholipidosis: Not Active

## COc1cc2c(cc1OC)[C@@H]1C[C@H](N)[C@@H](N3C[C@@H](CF)CC3=O)CN1CC2 [CARMEGLIPTIN]
[1]
  logD: -0.5
[2]
  permeability: 0.13 ×10⁻⁶ cm/s
Rattus norvegicus [3]
  Activity: 66%
Mus musculus [13]
  Activity: 30%
Mus musculus [14]
  Activity: Active
Rattus norvegicus [15]
  Activity: Active
Rattus norvegicus [16]
  Activity: 1.3 mg/min/kg
hERG (KCNH2) [17]
  IC20: 21 µM
[5]
  clearance: 24 mL/min/kg
[6]
  clearance: 8.5 mL/min/kg
[7]
  Vd: 6.3 L/kg
[8]
  Vd: 3.3 L/kg
[9]
  half-life: 5.3 h
[10]
  half-life: 6.8 h
[11]
  bioavailability: 28%
[12]
  bioavailability: 33%
Cynomolgus monkey [18]
  Activity: 40%
Cynomolgus monkey [19]
  Activity: 60%
Rattus norvegicus [20]
  Fraction cleared renally: 30%
Canis familiaris
  Fraction cleared renally: 30%
Rhesus monkey
  Fraction cleared renally: 30%
Phospholipidosis
  Phospholipidosis: Not Active

## COc1cc2c(cc1OC)C1CC(N)C(N3CCOC3=O)CN1CC2 (stereo not given)
[1]
  logD: -0.8
[2]
  permeability: 0 ×10⁻⁶ cm/s

## COc1cc2c(cc1OC)C1CC(N)C(N3CCCC[S+]3[O-])CN1CC2 (stereo not given)
[1]
  logD: -0.4
[2]
  permeability: 0.7 ×10⁻⁶ cm/s
Rattus norvegicus [3]
  Activity: 18%

## COc1cc2c(cc1OC)[C@@H]1C[C@H](N)[C@@H](N3C[C@H](CF)CC3=O)CN1CC2
[1]
  logD: -0.4
[2]
  permeability: 0.4 ×10⁻⁶ cm/s
Rattus norvegicus [3]
  Activity: 77%
Mus musculus [13]
  Activity: 20%
Phospholipidosis
  Phospholipidosis: Not Active

## COc1cc2c(cc1OC)[C@@H]1C[C@H](N)[C@@H](N3C[C@H](C)CC3=O)CN1CC2
[1]
  logD: -0.3
[2]
  permeability: 0.8 ×10⁻⁶ cm/s
Rattus norvegicus [3]
  Activity: 46%

## COc1cc2c(cc1OC)C1CC(N)C(N3CCCC3=O)CN1CC2 (stereo not given)
[1]
  logD: -0.5
[2]
  permeability: 0.6 ×10⁻⁶ cm/s

## COc1cc2c(cc1OC)C1CC(N)C(N3CC(C)CC3=O)CN1CC2 (stereo not given)
[1]
  logD: -0.2
[2]
  permeability: 0.2 ×10⁻⁶ cm/s
Rattus norvegicus [3]
  Activity: 42%
hERG (KCNH2) [4]
  inhibition at 10 µM: 9%
Phospholipidosis
  Phospholipidosis: Not Active

## COc1cc2c(cc1OC)[C@@H]1C[C@H](N)[C@@H](N3C[C@@H](C)CC3=O)CN1CC2
[1]
  logD: -0.1
[2]
  permeability: 0.6 ×10⁻⁶ cm/s
Rattus norvegicus [3]
  Activity: 79%
Mus musculus [13]
  Activity: 50%
Mus musculus [14]
  Activity: Active
Rattus norvegicus [15]
  Activity: Active
Phospholipidosis
  Phospholipidosis: Not Active

## COc1cc2c(cc1OC)C1CC(N)C(N3CCC[S+]3[O-])CN1CC2 (stereo not given)
[1]
  logD: -0.7
[2]
  permeability: 1.2 ×10⁻⁶ cm/s

## COc1cc2c(cc1OC)C1CC(N)C(N3CCCOC3=O)CN1CC2 (stereo not given)
[1]
  logD: -0.9
[2]
  permeability: 0.1 ×10⁻⁶ cm/s

## COc1cc2c(cc1OC)C1CC(N)C(N3CCC(C)CC3=O)CN1CC2 (stereo not given)
[1]
  logD: -0.2
[2]
  permeability: 0.5 ×10⁻⁶ cm/s
Rattus norvegicus [3]
  Activity: 16%

## COc1cc2c(cc1OC)C1CC(N)C(N3CC(C)CCC3=O)CN1CC2 (stereo not given)
[1]
  logD: 0
[2]
  permeability: 1.1 ×10⁻⁶ cm/s
Rattus norvegicus [3]
  Activity: 34%
Phospholipidosis
  Phospholipidosis: Not Active

## CCC1CC(=O)N(C2CN3CCc4cc(OC)c(OC)cc4C3CC2N)C1 (stereo not given)
[1]
  logD: -0.1
[2]
  permeability: 0.9 ×10⁻⁶ cm/s
Rattus norvegicus [3]
  Activity: 31%
hERG (KCNH2) [4]
  inhibition at 10 µM: 45%
